Experimental data from article PMC8510478, “Characterization and Identification of Bioactive Polyphenols in the Trapa bispinosa Roxb. Pericarp Extract” (Molecules, 2021).
Counter-ions that a name gives are not always drawn. Like-named read-outs stand apart in the source and are kept apart here.

Key:
[1] = test system: AGE formation in human serum albumin (HSA)/glucose or fructose; test: Inhibitory effect on AGE formation (HSA with glucose or fructose, fluorescence); format: biochemical; conditions: 60 °C, 40 h, means ± SE (n = 3)
Experimental: The antiglycation effects of compounds isolated from TBE and several other related compounds were evaluated based on their AGE inhibitory activities as described previously, with slight modifications. Briefly, the sample solution was added to a reaction mixture containing 83.3 mM phosphate buffer (pH 7.2), 2.0 M glucose, 2.0 M fructose, 8.0 mg/mL human serum albumin (HSA), and distilled water (6:1:1:1:1, v/v). As a control, the vehicle was supplemented instead of the sample solution. For each blank, glucose or fructose was replaced with distilled water, and the total volume was set to 1000 μL. After incubation of the sample mixture at 60 °C for 40 h, the solutions were diluted 8-fold with distilled water, dispensed into a black microplate in 200 µL portions, and their fluorescence intensities were measured at excitation and emission wavelengths of 370 and 465 nm, respectively, using a Power Scan HT (DS Pharma Biomedical Co. Ltd., Osaka, Japan). The inhibitory rate was calculated as; Inhibitory rate (%) = 100 − [(S − SB)/(C − CB)] × 100(2) where S is the relative intensity of the sample solution, C is the relative intensity of the control solution, and SB and CB are the intensities of the glucose or fructose-omitted blank solutions. The experimental data are represented as IC50 (μM) values.

[2] = AGE-derived crosslink-cleaving effect (PPD cleavage to benzoic acid, HPLC); conditions: for Crosslink-Cleaving Activities Relative Ratio: tested samples 100 μg/mL, relative to PTB = 100, means ± SE (n = 3); for AGE cross-link cleaving activity (in words): compared with positive control PTB
Experimental: The AGE crosslink-cleaving activity of the same samples was evaluated according to the previously described method by Kato et al. with a slight modification. Briefly, the 1 mg/mL of tested samples prepared with H2O were mixed with 1.13 mM PPD solution in MeOH:50 mM phosphate buffer (pH 7.4) (1:1) and incubated at 37 °C for 4 h. After 4 h, the reaction was stopped with 200 μL of 2 M HCl, then the stopped reaction mixtures were centrifuged at 8200× g for 5 min. The amount of benzoic acid in the supernatant was measured by reversed-phase HPLC. The following conditions were applied: column, InertSustain C18 column (150 mm × 4.6 i.d mm., 5 μm); mobile phase, 50 mM phosphate buffer (pH 2.2):CH3CN (80:20) (solvent A) and 50 mM phosphate buffer (pH 2.2):CH3CN (50:50) (solvent B), the gradient program, 0–20 min (solvent B: 0–25%), 20–25 min (solvent B: 25–100%), 25–36 min (solvent B: 100–25%); column temperature, 40 °C; detection, UV at 230 nm; flow rate, 1.0 mL/min. These cleaving effects were calculated as equivalents to benzoic acid.

[3] = biological target: α-glucosidase; parameters: method as in earlier work; conditions: cited from earlier work; for IC50: table lines marked with reference 8, means ± SE (n = 3), read-out: Inhibitory Effects on α-Glucosidase Activity IC50; for Inhibitory activity on α-glucosidase (in words): ellagitannin dimers isolated from T. japonica
[4] = biological target: α-glucosidase; test: α-Glucosidase inhibitory activity (rat intestinal acetone powder, maltose substrate); format: biochemical; conditions: for IC50: maltose, pH 7, 37 °C, means ± SE (n = 3), read-out: Inhibitory Effects on α-Glucosidase Activity IC50
Experimental: The α-glucosidase inhibitory activity was tested according to the previously described method by Kirino et al. with a slight modification. Rat intestinal acetone powder was mixed with 0.1 M phosphate buffer (pH 7) and centrifuged at 18,500× g and 4 °C for 20 min. The resulting supernatant was collected and used as a glucosidase solution for enzymatic assay. Each sample solution (160 μL) was mixed with 250 mM maltose solution (20 μL) in 0.2 M phosphate buffer (pH 7) and then incubated at 37 °C for 3 min. After incubation, the enzymatic reaction was started by adding glucosidase solution from the rat intestine (20 μL) and the resulting reaction mixtures were further incubated at 37 °C for 15 min. After 15 min, the reaction mixtures were immediately heated at 100 °C for 5 min to stop the reaction followed by cooling on ice for 5 min. The amount of glucose in the reaction mixtures was determined using the F-Kit glucose (Roche diagnostics, Co., Tokyo, Japan) by measuring the absorbance at 340 nm. A control was carried out with 0.1 M phosphate buffer (pH 7) instead of sample solution. For the blank, the glucosidase solution was replaced with distilled water. The glucosidase inhibitory rates of tested samples were calculated as; Inhibitory rate (%) = 100 − [(Asample − Ablank)/(Acontrol − Ablank)] × 100(1) where Asample, Acontrol, and Ablank is the absorbance of the tested sample, control, and blank, respectively. The experimental data are represented as IC50 (μM) values.

[5] = HSA/fructose, read-out: Inhibitory Effects on AGE Formation IC50, Fructose
[6] = HSA/glucose, read-out: Inhibitory Effects on AGE Formation IC50, Glucose

## O=C(O[C@@H]1O[C@H](CO)[C@@H](O)[C@H](OC(=O)c2cc(O)c(O)c(O)c2)[C@H]1OC(=O)c1cc(O)c(O)c(O)c1)c1cc(O)c(O)c(O)c1 [Compound 2, 1,2,3-tri-O-galloyl-β-D-glucose]
[1]; [5]
  IC50: 0.4 µM
[1]; [6]
  IC50: 0.4 µM
[2]
  Crosslink-Cleaving Activities Relative Ratio: 190.5 ± 2.5
[3]
  IC50: > 100 µM

## N=C(N)NN [Aminoguanidine, aminoguanidine hydrochloride, reference compound]
[1]; [5]
  IC50: 801 ± 17.7 µM
[1]; [6]
  IC50: 259 ± 6.8 µM

## O=C(OC[C@H]1O[C@@H](OC(=O)c2cc(O)c(O)c(O)c2)[C@H](OC(=O)c2cc(O)c(O)c(O)c2)[C@@H](OC(=O)c2cc(O)c(O)c(O)c2)[C@@H]1O)c1cc(O)c(O)c(O)c1 [Compound 5, 1,2,3,6-tetra-O-galloyl-β-D-glucose]
[1]; [5]
  IC50: 0.3 µM
[1]; [6]
  IC50: 0.3 µM
[2]
  Crosslink-Cleaving Activities Relative Ratio: 209.0 ± 33.7
[3]
  IC50: > 100 µM

## O=C(OC[C@H]1O[C@@H](O)[C@H](OC(=O)c2cc(O)c(O)c(O)c2)[C@@H](OC(=O)c2cc(O)c(O)c(O)c2)[C@@H]1O)c1cc(O)c(O)c(O)c1 [Compound 4, 2,3,6-tri-O-galloyl-β-D-glucose]
[1]; [5]
  IC50: 1 µM
[1]; [6]
  IC50: 0.3 µM

## O=C(OC[C@H]1O[C@@H](OC(=O)c2cc(O)c(O)c(O)c2)[C@H](OC(=O)c2cc(O)c(O)c(O)c2)[C@@H](OC(=O)c2cc(O)c(O)c(O)c2)[C@@H]1OC(=O)c1cc(O)c(O)c(O)c1)c1cc(O)c(O)c(O)c1 [1,2,3,4,6-Penta-O-galloyl-β-D-glucose, reference compound]
[4]
  IC50: 59 ± 0.4 µM
[1]; [5]
  IC50: 0.2 µM
[1]; [6]
  IC50: 0.2 µM
[2]
  Crosslink-Cleaving Activities Relative Ratio: 97.9 ± 2.1

## COc1cc(C2Oc3c(OC)cc(CCCO)cc3C2COC2OC(CO)C(O)C(O)C2O)ccc1O [Compound 10, (7′S,8′R)-dihydrodehydrodiconiferyl alcohol-9′-O-β-D-glucoside]
[4]
  α-Glucosidase inhibitory activity (in words): no inhibitory activity
  IC50: > 100 µM
[1]; [5]
  IC50: > 1000 µM
[1]; [6]
  IC50: > 500 µM
[2]
  Crosslink-Cleaving Activities Relative Ratio: 16.7 ± 1.4

## Cornusiin G [reference compound]
[3]
  Inhibitory activity on α-glucosidase (in words): comparable to that of acarbose
  IC50: 6.3 ± 0.1 µM

## O=C(OC[C@H]1O[C@@H](O)[C@H](OC(=O)c2cc(O)c(O)c(O)c2)[C@@H](O)[C@@H]1O)c1cc(O)c(O)c(O)c1 [Compound 1, 2,6-di-O-galloyl-β-D-glucose]
[1]; [5]
  IC50: 3.3 µM
[1]; [6]
  IC50: 1.5 ± 0.1 µM
[2]
  Crosslink-Cleaving Activities Relative Ratio: 77.4 ± 4.0

## O=c1oc2c(O)c(Oc3ccc(O)c(O)c3O)cc3c(=O)oc4c(O)c(O)cc1c4c23 [Compound 12, eschweilenol A]
[4]
  α-Glucosidase inhibitory activity (in words): no inhibitory activity
  IC50: > 100 µM
[1]; [5]
  IC50: 2.9 ± 0.1 µM
[1]; [6]
  IC50: 2.4 µM
[2]
  AGE cross-link cleaving activity (in words): remarkable activities
  Crosslink-Cleaving Activities Relative Ratio: 484.5 ± 12.5

## O=C(C[n+]1ccsc1)c1ccccc1.[Br-] [N-Phenacylthiazolium bromide (PTB), N-phenacylthiazolium bromide, reference compound]
[2]
  Crosslink-Cleaving Activities Relative Ratio: 100

## O=C(O[C@@H]1O[C@@H]2COC(=O)c3cc(Oc4c(C(=O)O[C@@H]5O[C@@H]6COC(=O)c7cc(O)c(O)c(O)c7-c7c(cc(O)c(O)c7O)C(=O)O[C@H]6[C@H](OC(=O)c6cc(O)c(O)c(O)c6)[C@H]5OC(=O)c5cc(O)c(O)c(O)c5)cc(O)c(O)c4O)c(O)c(O)c3-c3c(cc(O)c(O)c3O)C(=O)O[C@H]2[C@H](OC(=O)c2cc(O)c(O)c(O)c2)[C@H]1OC(=O)c1cc(O)c(O)c(O)c1)c1cc(O)c(O)c(O)c1 [rugosin D, reference compound]
[3]
  Inhibitory activity on α-glucosidase (in words): comparable to that of acarbose

## O=C(O[C@@H]1O[C@@H]2COC(=O)c3cc(Oc4ccc(O)c(O)c4O)c(O)c(O)c3-c3c(cc(O)c(O)c3O)C(=O)O[C@H]2[C@H](OC(=O)c2cc(O)c(O)c(O)c2)[C@H]1OC(=O)c1cc(O)c(O)c(O)c1)c1cc(O)c(O)c(O)c1 [Compound 8, decarboxylated rugosin A]
[4]
  IC50: 20.7 ± 0.1 µM
[1]; [5]
  IC50: 0.3 µM
[1]; [6]
  IC50: 0.3 µM
[2]
  Crosslink-Cleaving Activities Relative Ratio: 233.0 ± 5.8

## O=C(OC[C@H]1O[C@@H](OC(=O)c2cc(O)c(O)c(O)c2)[C@H](OC(=O)c2cc(O)c(O)c(O)c2)[C@@H](O)[C@@H]1O)c1cc(O)c(O)c(O)c1 [Compound 3, 1,2,6-tri-O-galloyl-β-D-glucose]
[1]; [5]
  IC50: 0.4 µM
[1]; [6]
  IC50: 0.3 µM
[2]
  Crosslink-Cleaving Activities Relative Ratio: 146.6 ± 12.6
[3]
  IC50: > 100 µM

## O=C(OC[C@H]1O[C@@H](OC(=O)c2cc(O)c(O)c(O)c2)[C@H](OC(=O)c2cc(O)c(O)c(O)c2)[C@@H](O)[C@@H]1OC(=O)c1cc(O)c(O)c(O)c1)c1cc(O)c(O)c(O)c1 [Compound 6, 1,2,4,6-tetra-O-galloyl-β-D-glucose]
[4]
  IC50: > 100 µM
[1]; [5]
  IC50: 0.3 µM
[1]; [6]
  IC50: 0.3 µM
[2]
  Crosslink-Cleaving Activities Relative Ratio: 159.6 ± 12.7

## O=c1oc2c(O)c(O)cc3c(=O)oc4c(O)c(O)cc1c4c23 [Ellagic acid, reference compound]
[4]
  α-Glucosidase inhibitory activity (in words): little effect
  IC50: > 100 µM
[1]; [5]
  IC50: 2.5 ± 0.1 µM
[1]; [6]
  IC50: 1.8 ± 0.1 µM
[2]
  Crosslink-Cleaving Activities Relative Ratio: 11.4 ± 0.1

## O=C(O)c1cc(O)c(O)c(O)c1 [Gallic acid]
[4]
  α-Glucosidase inhibitory activity (in words): little effect
[1]; [5]
  IC50: 27 ± 2.6 µM
[1]; [6]
  IC50: 14.7 ± 2 µM
[2]
  AGE cross-link cleaving activity (in words): remarkable activities
  Crosslink-Cleaving Activities Relative Ratio: 720.1 ± 54.1
[3]
  IC50: > 100 µM

## O=C(OC1O[C@@H]2COC(=O)c3cc(O)c(O)c(O)c3-c3c(cc(O)c(O)c3O)C(=O)O[C@H]2[C@H](OC(=O)c2cc(O)c(O)c(O)c2)[C@H]1OC(=O)c1cc(O)c(O)c(O)c1)c1cc(O)c(O)c(O)c1 (stereo partly shown) [Compound 7, tellimagrandin II]
[1]; [5]
  IC50: 0.3 µM
[1]; [6]
  IC50: 0.2 µM
[2]
  Crosslink-Cleaving Activities Relative Ratio: 230.8 ± 12.2
[3]
  IC50: > 100 µM

## COc1cc([C@H]2Oc3c(OC)cc(CCCO)cc3[C@@H]2CO)ccc1O [Compound 13]
[4]
  α-Glucosidase inhibitory activity (in words): no inhibitory activity
  IC50: > 100 µM
[1]; [5]
  IC50: > 1000 µM
[1]; [6]
  IC50: > 500 µM
[2]
  Crosslink-Cleaving Activities Relative Ratio: 17.2 ± 1.1

## O=C(O[C@@H]1O[C@@H]2COC(=O)c3cc(Oc4c(C(=O)O[C@H]5C(O)O[C@@H]6COC(=O)c7cc(O)c(O)c(O)c7-c7c(cc(O)c(O)c7O)C(=O)O[C@H]6[C@@H]5OC(=O)c5cc(O)c(O)c(O)c5)cc(O)c(O)c4O)c(O)c(O)c3-c3c(cc(O)c(O)c3O)C(=O)O[C@H]2[C@H](OC(=O)c2cc(O)c(O)c(O)c2)[C@H]1OC(=O)c1cc(O)c(O)c(O)c1)c1cc(O)c(O)c(O)c1 (stereo partly shown) [Compound 9, camptothin B]
[4]
  IC50: > 100 µM
[1]; [5]
  IC50: 0.2 µM
[1]; [6]
  IC50: 0.1 µM
[2]
  Crosslink-Cleaving Activities Relative Ratio: 180.6 ± 4.2

## O=c1oc2c(Oc3ccc(O)c(O)c3O)c(O)cc3c(=O)oc4c(O)c(O)cc1c4c23 [Compound 11, rubuphenol]
[4]
  α-Glucosidase inhibitory activity (in words): no inhibitory activity
  IC50: > 100 µM
[1]; [5]
  IC50: 4.7 ± 0.3 µM
[1]; [6]
  IC50: 2.4 µM
[2]
  AGE cross-link cleaving activity (in words): remarkable activities
  Crosslink-Cleaving Activities Relative Ratio: 514.8 ± 11.2
